Measured values as given in US8029984B2, “Materials and methods for colorectal cancer screening, diagnosis and therapy” (Licentia, Ltd., priority 2003, dated 2011).

Legend:
Assay type in all cases: cell-based, human
SW480R cells [1] = assay: Treatment of SW480R cells with inhibitor of DNA methyltransferases
Source text: (§1) DNA methylation is frequently abnormal in colorectal cancer, and it was reported recently that Prox-1 expression is suppressed in human hematological cell lines due to hypermethylation of CpG islands in intron 1 of Prox-1 (Nagai, H. et al., Genes Chromosomes Cancer 38, 13-21 (2003)).

SW480A cells = assay: Treatment of SW480A cells with inhibitor of DNA methyltransferases
Source text: as §1

SW480R cells [2] = assay: BrdU incorporation in siRNA transfected SW480R cells
Description: Transfection of siRNAs was carried out using lipofectamine 2000 (Invitrogen) according to manufacturer's instructions using 0.5% (v/v) lipofectamine 2000 reagent for SW480R and 0.4% (v/v) lipofectamine 2000 for adherent SW480 cells and either 2 nM or 100 nM (f.c.) of siRNA. Transfections were carried out in antibiotic-free media for 4-6 hours before changing cells back to normal culture media. For long-term experiments siRNA transfections were repeated after 48-72 h from previous transfection (at protein level the silencing effect was seen to remain efficient for at least 96 h). Normally approximately 90-95% transfection efficiency was achieved. Opti-MEM (Invitrogen) medium was used in preparation of transfection mixtures.
Experiments were conducted to investigate whether Prox-1 plays role in the generation and maintenance of the highly transformed phenotype. Prox-1 mRNA and protein in the SW480R cells was suppressed using Prox-1 targeting siRNA. […] Eventually the Prox-1 siRNA cells started to spread on the plate and a number of increased actin stress fibers could be visualized by phalloidine staining.

SW480R cells [3] = assay: Soft agar assay (anchorage-independent growth); settings: transfected repeatedly over 8 days, two weeks of growth
Description: FIG. 3 depicts the efficacy of Prox-1 suppression for inhibiting SW480R cell growth in soft agar. SW480R cells were transfected with GFP siPRNA, Prox-1 siRNA A16 or Prox-1 siRNA A25 or left untreated, and seeded in soft agar in triplicate. The number of colonies was scored after two weeks of growth.
For soft agar assay, 2×10^3 and 2×10^4 cells were seeded in triplicate in 1 ml of 0.33% (w/v) agar (Difco) containing D-MEM, 10% fetal bovine serum, 1 mM glutamine and antibiotics in 6-well plates containing 1 ml of 0.5% bottom agar layer. Cells were fed twice a week, and number of colonies per plate was scored after two weeks in culture.
Since anchorage-independent growth is one of the hallmarks of malignant transformation, experiments were conducted to assess the effects of Prox-1 suppression on the growth of SW480R cells in soft agar. SW480R cells were transfected with GFP siPRNA, Prox-1 siRNA A16 or Prox-1 siRNA A25 repeatedly over an 8-day period, or left untreated, and seeded in soft agar in triplicate. The number of colonies was scored after two weeks of growth.

| Molecule | Prox-1 expression (SW480R cells [1]) | Prox-1 mRNA (SW480A cells) | expression of TIMP3 (SW480A cells) | BrdU positive cells (SW480R cells [2]) | number of colonies formed in soft agar (SW480R cells [3]) |
| --- | --- | --- | --- | --- | --- |
| Nc1ncn([C@H]2C[C@H](O)[C@@H](CO)O2)c(=O)n1 [5-aza-2′-deoxycytidine] | almost completely suppressed | did not result in the increase | increase | – | – |
| GFP siRNA: control siRNA, sense GACGUAAACGGCCACAAGUUU (SEQ ID NO: 8), antisense ACUUGUGGCCGUUUACGUCUU (SEQ ID NO: 9) (listed as RNA, chemistry not given here; listed as Homo sapiens) | – | – | – | 34±4% | – |
| Prox-1 siRNA A16: siRNA duplex, sense 5′-CUGCAAGCUGGAUAGUGAAGU-3′ (SEQ ID NO: 4), antisense 5′-UUCACUAUCCAGCUUGCAGAU-3′ (SEQ ID NO: 5) (RNA, backbone not given here; listed as Homo sapiens) | – | – | – | 22±0.5% | significantly decreased |
| Prox-1 siRNA A25: siRNA duplex, sense 5′-CUAUGAGCCAGUUUGAUAUUU-3′ (SEQ ID NO: 6), antisense 5′-AUAUCAAACUGGCUCAUAGUU-3′ (SEQ ID NO: 7) (RNA, backbone not given here; listed as Homo sapiens) | – | – | – | 18±1% | significantly decreased |
